# Measured values: PMC7031696 (Cell chemical biology, 2019)
# Tested on: 3D7-MR4 trophozoite parasite-infected RBCs
# Experiment: Metabolomic profiling (hydrophilic metabolite changes, UHPLC-MS)
# Format: cell-based, Plasmodium falciparum
substance,measurement,setting,value
Ferroquine [reference compound],changes within the set of metabolites detected (low fold change group),"10 × IC50^72h, 2.5 hr, trophozoites",did not induce major changes
same,Log2(fold changes) 1_3-Bisphosphoglyceric acid,"metabolite 1_3-Bisphosphoglyceric acid, log2 fold change",0.0000
same,Log2(fold changes) 2-Hydroxy-2-methylbutanedioic acid,"metabolite 2-Hydroxy-2-methylbutanedioic acid, log2 fold change",-0.0247
same,Log2(fold changes) 2-Isopropylmalic acid,"metabolite 2-Isopropylmalic acid, log2 fold change",0.0000
same,Log2(fold changes) 2-dehydro-D-gluconate,"metabolite 2-dehydro-D-gluconate, log2 fold change",-0.3147
same,Log2(fold changes) 2-oxo-4-methylthiobutanoate,"metabolite 2-oxo-4-methylthiobutanoate, log2 fold change",0.0000
same,Log2(fold changes) 2_3-Diphosphoglyceric acid,"metabolite 2_3-Diphosphoglyceric acid, log2 fold change",-0.0833
same,Log2(fold changes) 3-phosphoglycerate,"metabolite 3-phosphoglycerate, log2 fold change",0.2090
same,Log2(fold changes) 3-phosphoserine,"metabolite 3-phosphoserine, log2 fold change",0.0000
same,Log2(fold changes) 4-Pyridoxic acid,"metabolite 4-Pyridoxic acid, log2 fold change",0.0751
same,Log2(fold changes) 4-aminobutyrate,"metabolite 4-aminobutyrate, log2 fold change",0.0759
same,Log2(fold changes) 4-phosphopantetheine,"metabolite 4-phosphopantetheine, log2 fold change",0.0000
same,Log2(fold changes) 4-phosphopantothenate,"metabolite 4-phosphopantothenate, log2 fold change",0.0213
same,Log2(fold changes) 5-aminopentanoic acid,"metabolite 5-aminopentanoic acid, log2 fold change",0.0000
same,Log2(fold changes) 5-methyl-THF,"metabolite 5-methyl-THF, log2 fold change",0.0000
same,Log2(fold changes) 5-phosphoribosyl-1-pyrophosphate,"metabolite 5-phosphoribosyl-1-pyrophosphate, log2 fold change",0.0000
same,Log2(fold changes) 6-phospho-D-gluconate,"metabolite 6-phospho-D-gluconate, log2 fold change",0.0000
same,Log2(fold changes) ADP-D-glucose,"metabolite ADP-D-glucose, log2 fold change",0.0625
same,Log2(fold changes) Acetyl-glycine,"metabolite Acetyl-glycine, log2 fold change",0.0000
same,Log2(fold changes) Acetyllysine,"metabolite Acetyllysine, log2 fold change",0.2432
same,Log2(fold changes) Aminoadipic acid,"metabolite Aminoadipic acid, log2 fold change",0.0000
same,Log2(fold changes) CDP,"metabolite CDP, log2 fold change",-0.2924
same,Log2(fold changes) CDP-choline,"metabolite CDP-choline, log2 fold change",0.0000
same,Log2(fold changes) CDP-ethanolamine,"metabolite CDP-ethanolamine, log2 fold change",0.1904
same,Log2(fold change) of CMP,metabolite CMP,-0.0276
same,Log2(fold change) of CTP,metabolite CTP,0.0362
same,Log2(fold changes) Citraconic acid,"metabolite Citraconic acid, log2 fold change",0.0302
same,Log2(fold change) of D-glucarate,metabolite D-glucarate,0.4691
same,Log2(fold change) of D-gluconate,metabolite D-gluconate,0.0000
same,Log2(fold change) of D-glucosamine-1/6-phosphate,metabolite D-glucosamine-1/6-phosphate,0.0000
same,Log2(fold change) of D-sedoheptulose-1/7-phosphate,metabolite D-sedoheptulose-1/7-phosphate,-0.0036
same,Log2(fold change) of DL-Pipecolic Acid,metabolite DL-Pipecolic Acid,-0.1035
same,Log2(fold change) of DLH,metabolite DLH,0.0094
same,Log2(fold change) of DLS,metabolite DLS,0.0686
same,Log2(fold change) of Decanoyl-CoA,metabolite Decanoyl-CoA,0.0000
same,Log2(fold change) of EV,metabolite EV,0.0000
same,Log2(fold change) of FAD,metabolite FAD,0.0236
same,Log2(fold change) of FMN,metabolite FMN,0.1126
same,Log2(fold change) of G3P/DHAP,metabolite G3P/DHAP,0.0000
same,Log2(fold change) of GDP,metabolite GDP,-0.2435
same,Log2(fold change) GMP,metabolite GMP,-0.0369
same,Log2(fold change) GTP,metabolite GTP,0.0612
same,Log2(fold change) HVDD,metabolite HVDD,0.0000
same,Log2(fold change) Hexose,metabolite Hexose,0.9215
same,Log2(fold change) Hydroxyisocaproic acid,metabolite Hydroxyisocaproic acid,0.0000
same,Log2(fold change) IDP,metabolite IDP,0.0000
same,Log2(fold change) IMP,metabolite IMP,-0.0158
same,Log2(fold change) Inositol,metabolite Inositol,0.0000
same,Log2(fold change) Isopentyl-PP,metabolite Isopentyl-PP,0.0768
same,Log2(fold change) L-arginino-succinate,metabolite L-arginino-succinate,0.0000
same,Log2(fold change) LD,metabolite LD,0.1184
same,Log2(fold change) Myristoyl/tetradecanoyl-CoA,metabolite Myristoyl/tetradecanoyl-CoA,0.0000
same,Log2(fold change) N-Acetyl-L-alanine,metabolite N-Acetyl-L-alanine,-0.1094
same,Log2(fold change) N-acetyl-L-ornithine,metabolite N-acetyl-L-ornithine,0.3046
same,Log2(fold change) N-acetyl-glucosamine-1/6-phosphate,metabolite N-acetyl-glucosamine-1/6-phosphate,-0.0561
same,Log2(fold change) N-acetyl-glutamate,metabolite N-acetyl-glutamate,0.1101
same,Log2(fold change) N-acetyl-glutamine,metabolite N-acetyl-glutamine,0.0004
same,Log2(fold change) N-carbamoyl-L-aspartate,metabolite N-carbamoyl-L-aspartate,0.0860
same,Log2(fold change) NAD+,metabolite NAD+,0.0993
same,Log2(fold change) NADH,metabolite NADH,0.0000
same,Log2(fold change) NADP+,metabolite NADP+,-0.0805
same,Log2(fold change) NADPH,metabolite NADPH,0.9289
same,Log2(fold change) O-acetyl-L-serine,metabolite O-acetyl-L-serine,0.0000
same,Log2(fold change) Octoluse 8/1P,metabolite Octoluse 8/1P,0.1026
same,Log2(fold change) Octoluse Bisphosphate,metabolite Octoluse Bisphosphate,0.0231
same,Log2(fold change) PD,metabolite PD,0.1011
same,Log2(fold change) PE,metabolite PE,0.0655
same,Log2(fold change) PEE,metabolite PEE,0.0431
same,Log2(fold change) PEEK,metabolite PEEK,0.3448
same,Log2(fold change) PVNF,metabolite PVNF,0.0000
same,Log2(fold change) Pyroglutamic acid,metabolite Pyroglutamic acid,0.1702
same,Log2(fold change) Pyrophosphate,metabolite Pyrophosphate,0.0000
same,Log2(fold change) Ribose-5-phosphate,metabolite Ribose-5-phosphate,0.0000
same,Log2(fold change) S-adenosyl-L-homocysteine,metabolite S-adenosyl-L-homocysteine,0.0736
same,Log2(fold change) S-adenosyl-L-methioninamine,metabolite S-adenosyl-L-methioninamine,0.0000
same,Log2(fold change) S-adenosyl-L-methionine,metabolite S-adenosyl-L-methionine,0.0000
same,Log2(fold change) S-methyl-5'-thioadenosine,metabolite S-methyl-5'-thioadenosine,0.0000
same,Log2(fold change) SD,metabolite SD,0.1281
same,Log2(fold change) SDL,metabolite SDL,0.2089
same,Log2(fold change) SID,metabolite SID,0.0000
same,Log2(fold change) Sedoheptulose bisphosphate,metabolite Sedoheptulose bisphosphate,0.0573
same,Log2(fold change) Thiamine pyrophosphate,metabolite Thiamine pyrophosphate,0.0000
same,Log2(fold changes) UDP-D-glucose,"metabolite UDP-D-glucose, log2 fold change",0.0465
same,Log2(fold changes) UDP-D-glucuronate,"metabolite UDP-D-glucuronate, log2 fold change",0.0272
same,Log2(fold changes) UDP-N-acetyl-glucosamine,"metabolite UDP-N-acetyl-glucosamine, log2 fold change",0.0319
same,Log2(fold changes) UDP,"metabolite UDP, log2 fold change",-0.2525
same,Log2(fold changes) UMP,"metabolite UMP, log2 fold change",-0.0522
same,Log2(fold changes) UTP,"metabolite UTP, log2 fold change",0.1015
same,Log2(fold changes) VD,"metabolite VD, log2 fold change",0.1916
same,Log2(fold changes) Xanthurenic acid,"metabolite Xanthurenic acid, log2 fold change",0.0000
same,Log2(fold changes) a-ketoglutarate,"metabolite a-ketoglutarate, log2 fold change",-0.2164
same,Log2(fold changes) acetyl-CoA,"metabolite acetyl-CoA, log2 fold change",0.0673
same,Log2(fold changes) acetyl-aspartate,"metabolite acetyl-aspartate, log2 fold change",-0.0096
same,Log2(fold changes) acetylphosphate,"metabolite acetylphosphate, log2 fold change",0.0000
same,Log2(fold changes) aconitate,"metabolite aconitate, log2 fold change",0.0000
same,Log2(fold changes) adenine,"metabolite adenine, log2 fold change",0.0000
same,Log2(fold changes) adenosine 5'-phosphosulfate,"metabolite adenosine 5'-phosphosulfate, log2 fold change",-0.1961
